≈ marks a conversion by molar mass, not a printed value. Read-outs that look alike come from different tables or passages of the source.
What was measured:
[1] = test system: Morganella morganii IID 602; assay: In vitro antibacterial activity, MIC (standard strain); format: cell-based; details: IID602; Morganella morganii IID 602; 10^6 cells/ml; standard strain; read-out: MIC
Shigella sonnei IID 969 = assay: as above; format: cell-based; details: IID969, 10^6 cells/ml
Protocol: Experiment-1 In vitro antibacterial activity
The in vitro antibacterial activity against gram-positive and gram-negative bacteria has been investivated.
The minimum inhibitory concentration (MIC) was determined in accordance with the method recommended by Japan Society of Chemotherapy.

E. coli ATCC 10536 = assay: as above; format: cell-based; details: Escherichia coli, ATCC10536
S. epidermidis IID 866 = assay: as above; format: cell-based; details: Staphylococcus epidermidis, IID866
[2] = test system: Klebsiella pneumoniae KY(GN)6445; assay: as above; format: cell-based; details: Klebsiella pneumoniae
[3] = test system: Yersinia enterocolitica IID 981; assay: as above; format: cell-based; details: Yersinia enterocolitica, IID981
K. pneumoniae 1-220S = assay: as above; format: cell-based; details: Klebsiella pneumoniae, 1220S
[4] = test system: Bacillus subtilis PCI 219; assay: as above; format: cell-based; details: Bacillus subtilis, PCI219
S. aureus Smith [5] = assay: as above; format: cell-based, Staphylococcus aureus; details: Staphylococcus aureus, MIC column of Table 3-1, beside ED50 against S. aureus Smith
P. mirabilis IID 994 = assay: as above; format: cell-based; details: Proteus mirabilis, IID994
C. difficile I-E = assay: as above; format: cell-based; details: Clostridioides difficile
[6] = test system: Fusobacterium varium KYA 8501; assay: as above; format: cell-based; details: Fusobacterium varium, KYA8501
[7] = test system: Salmonella entritidis IID 604; assay: as above; format: cell-based; details: Salmonella, IID604
[8] = test system: Proteus vulgaris IFO 3167; assay: as above; format: cell-based; details: Proteus vulgaris, IFO3167
[9] = test system: Escherichia coli NIHJ JC-2; assay: as above; format: cell-based; details: Escherichia coli, NIHJJC2
[10] = test system: Serratia marcescens IID 618; assay: as above; format: cell-based; details: Serratia marcescens, IID618
[11] = test system: S. aureus IID 670 (Terajima); assay: as above; format: cell-based, Staphylococcus aureus; details: Staphylococcus aureus, IID670
[12] = test system: Staphylococcus aureus 209 P; assay: as above; format: cell-based; details: Staphylococcus aureus, 209P
E. coli ML 4707 = assay: as above; format: cell-based; details: Escherichia coli, ML4707
S. aureus Smith [13] = assay: In vivo antibacterial activity against systemic infection in mice; design: species or system mice (ICR-S); details: Staphylococcus aureus, po
Protocol: (§1) Experiment-2 In vivo antibacterial activity against systemic infection in mice (ICR-S)
(§2) The infections were produced by intraperitoneal injection of a suspension of the bacterial culture corresponding to the germ studied. The products were administered orally at an hour after the infection.

E. coli ML4707 = assay: as above; design: species or system mice (ICR-S); details: Escherichia coli, ML4707, po, read-out: ED50 E. coli ML4707
Protocol: as §1, §2

S. pneumoniae S-4288 = assay: as above; design: species or system mice (ICR-S); details: Streptococcus pneumoniae, S4288, po, read-out: ED50 S. pneumoniae S-4288
Protocol: as §1, §2

[14] = test system: Citrobacter freundii IID 976; assay: In vitro antibacterial activity, MIC (standard strain); format: cell-based; details: Citrobacter freundii, IID976
M. pneumoniae Mac. = assay: In vitro antibacterial activity against Mycoplasma, MIC; format: cell-based; details: Mycoplasmoides pneumoniae, 120 h
Source text: Experiment-3 In vitro antibacterial activity against Mycoplasma

SMILES: O=C(O)c1cn(C2CC2)c2cc(N3CCNCC3)c(F)cc2c1=O [CFLX, Ciprofloxacin, reference compound]
- MIC [1]: 0.05 µg/mL (≈ 0.151 µM)
- MIC (Shigella sonnei IID 969): 0.0125 µg/mL (≈ 0.0377 µM)
- MIC (E. coli ATCC 10536): 0.025 µg/mL (≈ 0.0754 µM)
- MIC (S. epidermidis IID 866): 0.2 µg/mL (≈ 0.604 µM)
- MIC [2]: 0.025 µg/mL (≈ 0.0754 µM)
- MIC [3]: 0.05 µg/mL (≈ 0.151 µM)
- MIC (K. pneumoniae 1-220S): 0.05 µg/mL (≈ 0.151 µM)
- MIC [4]: 0.05 µg/mL (≈ 0.151 µM)
- MIC (S. aureus Smith [5]): 0.2 µg/mL (≈ 0.604 µM)
- MIC (P. mirabilis IID 994): 0.025 µg/mL (≈ 0.0754 µM)
- MIC (C. difficile I-E): 12.5 µg/mL (≈ 37.7 µM)
- MIC [6]: 12.5 µg/mL (≈ 37.7 µM)
- MIC [7]: 0.05 µg/mL (≈ 0.151 µM)
- MIC [8]: 0.0125 µg/mL (≈ 0.0377 µM)
- MIC [9]: 0.0125 µg/mL (≈ 0.0377 µM)
- MIC [10]: 0.05 µg/mL (≈ 0.151 µM)
- MIC [11]: 0.2 µg/mL (≈ 0.604 µM)
- MIC [12]: 0.2 µg/mL (≈ 0.604 µM)
- MIC (E. coli ML 4707): 0.0125 µg/mL (≈ 0.0377 µM)
- ED50 (S. aureus Smith [13]; read-out: ED50 S. aureus Smith, mice (ICR-S), an hour after intraperitoneal infection, challenge dose 6.0 x 10^5 cfu/mouse): > 25 mg/kg
- ED50 (S. aureus Smith [13]; read-out: ED50 against S. aureus Smith, mice (ICR-S), an hour after intraperitoneal infection, challenge dose 5.5 x 10^5 cfu/mouse, n=5): 25.5 mg/kg
- ED50 (S. aureus Smith [13]; read-out: ED50 against S. aureus Smith, mice (ICR-S), an hour after intraperitoneal infection, challenge dose 7 x 10^5 cfu/mouse, n=5): 12.3 mg/kg
- ED50 (E. coli ML4707): 1.8 mg/kg
- ED50 (S. pneumoniae S-4288): > 100 mg/kg
- MIC [14]: 0.025 µg/mL (≈ 0.0754 µM)

SMILES: CN(C)[C@@H]1C(O)=C(C(N)=O)C(=O)[C@@]2(O)C(O)=C3C(=O)c4c(O)cccc4[C@@](C)(O)[C@H]3C[C@@H]12 [TC, Tetracycline, reference compound]
- MIC (M. pneumoniae Mac.): 0.78 µg/mL (≈ 1.76 µM)

Reference: patent publication EP0183129A1, “Quinolonecarboxylic acid derivatives” (KYORIN PHARMACEUTICAL CO., LTD., priority 1984, dated 1986)
